Laboratory results: US11617718B2, “Process for producing a nano-CBD microemulsion system” (priority 2019, dated 2023)
Where two headings read alike, the source gives them in different places.

Key:
[1] = Water solubility / water-dispersing ability; type: physicochemical; conditions: FIG. 1, dispersed in water
Method: Producing a carrier: 70 ml of PEG was heated to 70° C. 70 ml of the carrier was added to the above-prepared dispersal phase, this dispersal phase continued to be heating to 100° C. and stirred at a speed of 600 rpm.

[2] = cited from earlier work

C=C(C)[C@@H]1CCC(C)=C[C@H]1c1c(O)cc(CCCCC)cc1O [CBD, Cannabidiol]
water-dispersing ability [1]: insoluble in water
half-life ([2]; in vivo): about 9 hours
bioavailability ([2]; used nasally (inhalantly)): about 31%
bioavailability ([2]; used orally): 13-19%
